US6348476B1, “Pharmaceutical combination preparation of an inhibitor of the sodium/hydrogen exchanger and a medicament for the treatment of cardiovascular diseases” (Aventis Pharma Deutschland GmbH, priority 1997, dated 2002)

Tested on: experimental cardiac infarct in rats
Assay: experimental cardiac infarct in rats: coronary artery closed for one hour, reperfused for two hours, size of infarct determined
Assay type: in vivo
Conditions: % of the risk area, mean±S.E.M., control 63.4±4.3%
Description: Male rats having a body weight of 280 to 410 g were classed into four groups and anaesthetized. The thorax was opened close to the sternum, a silk thread (Ethicon^R; 1.0 metric, 5-0) was placed around left coronary artery and the two loose ends of the thread were pulled through a small plastic tube.
For administration of substance, a catheter was placed into the left jugular vein. The systemic blood pressure was recorded in the left carotid artery using a pressure recorder (Combitrans^R, B. Braun Melsungen AG) and the ECG was registered using subcutaneous electrodes. After digital conversion, the data were registered in a computer and the ECG was evaluated in accordance with the guidelines of the Lambeth Convention (6. Walker M J A, Curtis M J, Hearse D J, Campbell R W F, Janse M J, Yellon D M, Cobbe S M, Cokes S J, Harness J B, Harron D W G, Higgins S J, Julian D G, Lab M J, Manning A S, Northover B J, Parraft J R, Riemersma R A, Rieva E, Russell D G, Sheridan D J, Winslow E, Woodward B: The Lambeth convention: Guidelines for the study of arrhythmias in ischemia, infarction and reperfusion. Cardiovasx. Res 1988; 22: 447-455).
Hoe 642 was dissolved in doubly distilled water and R56865 in tartaric acid (0.6%), dilution was carried out using doubly distilled water, and 4% of mannitol were added. […]

CC(C)c1ccc(C(=O)N=C(N)N)cc1S(C)(=O)=O.CS(=O)(=O)O [Hoe 642, cariporide]
size of infarct (10 mg/kg of body weight of Hoe 642 intravenously 5 min before occlusion, n=7): 33.2±3.7%

CN(c1nc2ccccc2s1)C1CCN(CCCCOc2ccc(F)cc2)CC1 [R56865, N-[1-[4-(4-fluorophenoxy)butyl]-4-piperdinyl]-N-methyl-2-benzothiazolamine]
size of infarct (3 mg/kg of body weight of R56865 intravenously 5 min before occlusion, n=8): 38.9±3.1%
